# Test results as given in article PMC7070036, “An amber obligate active site-directed ligand evolution technique for phage display” (Nature Communications, 2020).
# Where “and” joins values, the source holds several entries; their conditions need not be identical. Equal values may be shown once. Non-standard residues stand in square brackets, D forms with d. Residues, ends and D or L forms follow the SMILES beside them. Lys(thiomyristoyl) = CCCCCCCCCCCCCC(=S)NCCCC[C@H](N)C(=O)O; Abu = CC[C@H](N)C(=O)O
# Biological target: T1, SIRT2 (Homo sapiens, UniProt Q8IXJ6)
# T1 sequence (Q8IXJ6 1-389): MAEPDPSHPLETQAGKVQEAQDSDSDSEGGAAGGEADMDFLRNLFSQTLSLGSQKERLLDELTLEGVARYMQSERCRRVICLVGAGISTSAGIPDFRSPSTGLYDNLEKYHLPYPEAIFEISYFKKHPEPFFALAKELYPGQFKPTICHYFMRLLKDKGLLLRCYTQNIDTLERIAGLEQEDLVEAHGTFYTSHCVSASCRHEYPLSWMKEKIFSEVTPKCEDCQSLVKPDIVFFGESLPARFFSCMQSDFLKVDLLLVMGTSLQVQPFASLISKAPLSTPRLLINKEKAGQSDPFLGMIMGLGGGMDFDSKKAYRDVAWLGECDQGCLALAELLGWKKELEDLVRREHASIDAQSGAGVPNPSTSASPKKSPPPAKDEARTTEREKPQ
# Assay: SIRT2 inhibition assay for thiomyristoyl peptides
# Assay type: biochemical
# Conditions: for IC50: 10 nM SIRT2, 15 min preincubation, 5 µM substrate, n = 2
# Description: Assays were performed in 40-µL volumes at 37 °C in black, 384-well plates. […] Following incubation, the reaction started with the addition of the fluorogenic substrate (5 µM), and product formation was monitored by measuring the fluorescence intensity every 20 s for 5 min (SIRT2) in a BioTek Synergy H1 microplate reader at λex = 320 nm and λem = 408 nm (gain = 130 and read height = 7 mm). Initial rates were determined using the plot of fluorescence vs. time for linear portions of each curve. IC50 values were then determined using GraphPad Prism to fit a nonlinear regression to the normalized rates vs. inhibitor concentration.
compound,measurement,setting,value
CCCCCCCCCCCCCC(=S)NCCCC[C@H](NC(=O)[C@@H](NC(=O)[C@@H](NC(=O)[C@H](CS)NC(=O)[C@@H](N)[C@@H](C)O)[C@@H](C)O)C(C)C)C(=O)N[C@H](C(=O)NCC(N)=O)[C@@H](C)CC [S2P04-tMyK] (H-TCTV[Lys(thiomyristoyl)]IG-NH2),IC50,,13 ± 4 nM
same,activity at 0.000466362 µM,inhibitor 0.466362 nM,95.3%
same,"%Activity, SIRT2","inhibitor 0.466362 nM, 0.000466362 µM",104.732%
same,activity at 0.000932724 µM,inhibitor 0.932724 nM,97.9%
same,"%Activity, SIRT2","inhibitor 0.932724 nM, 0.000932724 µM",100.382%
same,"%Activity, SIRT2","inhibitor 1.86545 nM, 0.00186545 µM",87.5221% and 108.94%
same,"%Activity, SIRT2","inhibitor 3.7309 nM, 0.0037309 µM",78.4292% and 108.338%
same,activity at 0.0074618 µM,inhibitor 7.4618 nM,77.8%
same,"%Activity, SIRT2","inhibitor 7.4618 nM, 0.0074618 µM",66.6253%
same,"%Activity, SIRT2","inhibitor 14.9236 nM, 0.0149236 µM",48.6419% and 27.9749%
same,activity at 0.0596944 µM,inhibitor 59.6944 nM,11%
same,"%Activity, SIRT2","inhibitor 59.6944 nM, 0.0596944 µM",20.9299%
same,"%Activity, SIRT2","inhibitor 955.11 nM, 0.95511 µM",-1.089% and 1.089%
CCCCCCCCCCCCCC(=S)NCCCC[C@H](NC(=O)[C@@H](NC(=O)[C@@H](NC(=O)[C@@H](N)CC)[C@@H](C)O)C(C)C)C(=O)N[C@H](C(N)=O)[C@@H](C)CC [S2P04(Abu)-5-tMyK] (H-[Abu]TV[Lys(thiomyristoyl)]I-NH2),IC50,,18 ± 6 nM
same,activity at 0.000460773 µM,inhibitor 0.460773 nM,83.3%
same,"%Activity, SIRT2","inhibitor 0.460773 nM, listed as S2P04 (Abu)-tMyK, 0.000460773 µM",75.1766%
same,activity at 0.000921546 µM,inhibitor 0.921546 nM,84.4%
same,"%Activity, SIRT2","inhibitor 0.921546 nM, listed as S2P04 (Abu)-tMyK, 0.000921546 µM",83.3137%
same,activity at 0.00184309 µM,inhibitor 1.84309 nM,92.7%
same,"%Activity, SIRT2","inhibitor 1.84309 nM, listed as S2P04 (Abu)-tMyK, 0.00184309 µM",107.334%
same,activity at 0.00368618 µM,inhibitor 3.68618 nM,92.3%
same,"%Activity, SIRT2","inhibitor 3.68618 nM, listed as S2P04 (Abu)-tMyK, 0.00368618 µM",86.7202%
same,"%Activity, SIRT2","inhibitor 7.37237 nM, listed as S2P04 (Abu)-tMyK, 0.00737237 µM",106.229% and 65.8212%
same,activity at 0.0147447 µM,inhibitor 14.7447 nM,70.6%
same,"%Activity, SIRT2","inhibitor 14.7447 nM, listed as S2P04 (Abu)-tMyK, 0.0147447 µM",50.6621%
same,activity at 0.058979 µM,inhibitor 58.979 nM,27.7%
same,"%Activity, SIRT2","inhibitor 58.979 nM, listed as S2P04 (Abu)-tMyK, 0.058979 µM",13.9723%
same,activity at 0.117958 µM,inhibitor 117.958 nM,20.7%
same,"%Activity, SIRT2","inhibitor 117.958 nM, listed as S2P04 (Abu)-tMyK, 0.117958 µM",15.5064%
same,"%Activity, SIRT2","inhibitor 235.916 nM, listed as S2P04 (Abu)-tMyK, 0.235916 µM",2.564% and 11.5055%
same,"%Activity, SIRT2","inhibitor 471.832 nM, listed as S2P04 (Abu)-tMyK, 0.471832 µM",2.292% and -2.292%
same,"%Activity, SIRT2","inhibitor 943.663 nM, listed as S2P04 (Abu)-tMyK, 0.943663 µM",6.074% and 14.5226%
